Laboratory results reported in US8481586B2, “Pyrrolo[2,3-a] carbazoles and use thereof as PIM kinase inhibitors” (Centre National de la Recherche Scientifique, priority 2008, dated 2013).

Assays:
Test in all cases: kinase panel residual activity test
Format in all cases: biochemical
Conditions in all cases: compound at 10 μM
ERK8 = ERK8 (Homo sapiens (Human), UniProt Q8TD08)
Source text: (§1) MKK1, ERK 1, ERK 2, JNK1, JNK2, JNK3, p38a MAPK, p38b MAPK, p38g MAPK, p38s MAPK, ERK8, RSK1, RSK2, PDK1, PKBa, PKBb, SGK1, S6K1, PKA, ROCK2, PRK2, PKCa, PKC zeta, PKD1, MSK1, MNK1, MNK2, MAPKAP-K2, MAPKAP-K3, PRAK, CAMKKa, CAMKKb, CAMK1, SmMLCK, PHK, CHK1, CHK2, GSK3b, CDK2/cyclin A, PLK1, PLK1 (Okadaic acid), Aurora B, Aurora C, AMPK, MARK3, BRSK2, MELK, CK1, CK2, NEK2a, NEK6, NEK7, IKKb, PIM-1, PIM-2, PIM-3, SRPK1, MST2, EF2K, HIPK2, HIPK3, PAK-4, PAK5, PAK6, Src, Lck, CSK.

PKA = PKA (Homo sapiens (Human), UniProt P17612)
Source text: as §1

MNK1 = MNK1 (Homo sapiens (Human), UniProt Q9BUB5)
Source text: as §1

EF2K = EF2K (Homo sapiens (Human), UniProt O00418)
Source text: as §1

NEK6 = NEK6 (Homo sapiens (Human), UniProt Q9HC98)
NEK6, sequence (Q9HC98 whole entry, species assumed): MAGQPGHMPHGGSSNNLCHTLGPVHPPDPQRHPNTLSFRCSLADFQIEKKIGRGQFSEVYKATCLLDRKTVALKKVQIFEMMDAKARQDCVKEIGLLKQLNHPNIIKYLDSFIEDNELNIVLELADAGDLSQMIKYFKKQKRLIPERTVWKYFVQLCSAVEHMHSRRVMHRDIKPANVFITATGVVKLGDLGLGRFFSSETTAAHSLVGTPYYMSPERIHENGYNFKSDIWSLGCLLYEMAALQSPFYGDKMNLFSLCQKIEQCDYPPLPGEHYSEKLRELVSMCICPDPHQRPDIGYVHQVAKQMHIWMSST
Source text: as §1

S6K1 = S6K1 (Homo sapiens (Human), UniProt P23443)
Source text: as §1

PKBa = PKBa (Homo sapiens (Human), UniProt P31749)
Source text: as §1

MELK = MELK (Homo sapiens (Human), UniProt Q14680)
Source text: as §1

p38a MAPK = p38a MAPK (Homo sapiens (Human), UniProt Q16539)
p38a MAPK, sequence (Q16539 whole entry): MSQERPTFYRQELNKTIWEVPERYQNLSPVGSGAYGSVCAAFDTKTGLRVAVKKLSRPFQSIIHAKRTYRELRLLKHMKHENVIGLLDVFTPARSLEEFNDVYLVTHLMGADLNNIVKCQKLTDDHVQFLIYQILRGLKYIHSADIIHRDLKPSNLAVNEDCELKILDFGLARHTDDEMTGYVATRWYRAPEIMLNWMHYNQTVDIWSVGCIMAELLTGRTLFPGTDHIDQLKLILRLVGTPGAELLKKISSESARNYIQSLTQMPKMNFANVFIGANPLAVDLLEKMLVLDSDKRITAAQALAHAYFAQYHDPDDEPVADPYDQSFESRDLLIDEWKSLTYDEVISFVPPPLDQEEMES
Source text: as §1

NEK7 = NEK7 (Homo sapiens (Human), UniProt Q8TDX7)
Source text: as §1

SRPK1 = SRPK1 (Homo sapiens (Human), UniProt Q96SB4)
Source text: as §1

SmMLCK = system: SmMLCK
Source text: as §1

PLK1 = PLK1 (Homo sapiens (Human), UniProt P53350)
PLK1, sequence (P53350 whole entry, species assumed): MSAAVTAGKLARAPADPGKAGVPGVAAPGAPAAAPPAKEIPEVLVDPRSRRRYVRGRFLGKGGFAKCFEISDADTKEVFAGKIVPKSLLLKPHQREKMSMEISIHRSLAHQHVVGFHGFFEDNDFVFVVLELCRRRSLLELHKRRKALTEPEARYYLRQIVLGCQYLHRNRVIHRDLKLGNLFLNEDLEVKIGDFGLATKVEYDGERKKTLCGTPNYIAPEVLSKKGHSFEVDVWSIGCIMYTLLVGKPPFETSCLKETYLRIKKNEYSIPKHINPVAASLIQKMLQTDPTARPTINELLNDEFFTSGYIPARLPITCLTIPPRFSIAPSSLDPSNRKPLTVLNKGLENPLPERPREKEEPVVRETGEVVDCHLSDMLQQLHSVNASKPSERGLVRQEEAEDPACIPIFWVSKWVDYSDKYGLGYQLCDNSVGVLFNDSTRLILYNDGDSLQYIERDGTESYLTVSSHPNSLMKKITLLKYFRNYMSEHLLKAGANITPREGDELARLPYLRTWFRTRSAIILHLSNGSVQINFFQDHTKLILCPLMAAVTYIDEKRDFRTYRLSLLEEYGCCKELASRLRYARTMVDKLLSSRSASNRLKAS
Source text: as §1

SGK1 = SGK1 (Homo sapiens (Human), UniProt O00141)
Source text: as §1

p38s MAPK = p38s MAPK (Homo sapiens (Human), UniProt O15264)
Source text: as §1

p38g MAPK = p38g MAPK (Homo sapiens (Human), UniProt P53778)
Source text: as §1

AMPK = system: AMPK
Source text: as §1

p38b MAPK = p38b MAPK (Homo sapiens (Human), UniProt Q15759)
p38b MAPK, sequence (Q15759 whole entry): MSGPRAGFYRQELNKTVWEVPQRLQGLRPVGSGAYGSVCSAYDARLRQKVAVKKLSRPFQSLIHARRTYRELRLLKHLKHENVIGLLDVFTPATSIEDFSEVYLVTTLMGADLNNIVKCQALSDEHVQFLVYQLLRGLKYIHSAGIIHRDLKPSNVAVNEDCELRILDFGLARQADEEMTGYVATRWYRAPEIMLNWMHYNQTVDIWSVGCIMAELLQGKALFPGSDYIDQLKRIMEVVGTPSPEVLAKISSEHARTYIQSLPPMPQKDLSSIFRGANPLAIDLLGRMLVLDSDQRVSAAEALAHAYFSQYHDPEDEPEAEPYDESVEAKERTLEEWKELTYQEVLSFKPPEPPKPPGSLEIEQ
Source text: as §1

IKKb = IKKb (Homo sapiens (Human), UniProt O14920)
IKKb, sequence (O14920 whole entry, species assumed): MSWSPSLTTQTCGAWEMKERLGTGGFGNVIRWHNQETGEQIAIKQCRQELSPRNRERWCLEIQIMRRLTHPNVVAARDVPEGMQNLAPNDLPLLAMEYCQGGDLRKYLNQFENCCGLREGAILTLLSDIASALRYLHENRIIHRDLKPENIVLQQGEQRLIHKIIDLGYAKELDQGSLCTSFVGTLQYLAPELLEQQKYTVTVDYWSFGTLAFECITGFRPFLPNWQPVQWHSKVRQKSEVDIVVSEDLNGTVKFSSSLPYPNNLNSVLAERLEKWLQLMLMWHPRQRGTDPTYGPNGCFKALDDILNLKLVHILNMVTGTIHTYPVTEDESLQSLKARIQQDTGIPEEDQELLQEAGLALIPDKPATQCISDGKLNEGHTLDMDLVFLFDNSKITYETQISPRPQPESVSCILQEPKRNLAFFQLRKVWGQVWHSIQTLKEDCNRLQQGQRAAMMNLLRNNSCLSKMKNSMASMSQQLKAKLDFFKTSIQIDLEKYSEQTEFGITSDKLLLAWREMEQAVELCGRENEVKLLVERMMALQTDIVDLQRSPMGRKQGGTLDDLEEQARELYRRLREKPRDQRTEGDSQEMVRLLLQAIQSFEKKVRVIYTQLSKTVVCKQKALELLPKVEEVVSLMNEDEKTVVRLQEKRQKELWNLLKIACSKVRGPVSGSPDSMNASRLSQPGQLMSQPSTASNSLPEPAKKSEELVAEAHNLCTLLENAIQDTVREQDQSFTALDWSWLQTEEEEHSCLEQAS
Source text: as §1

PAK5 = PAK5 (Homo sapiens (Human), UniProt Q9P286)
PAK5, sequence (Q9P286 whole entry): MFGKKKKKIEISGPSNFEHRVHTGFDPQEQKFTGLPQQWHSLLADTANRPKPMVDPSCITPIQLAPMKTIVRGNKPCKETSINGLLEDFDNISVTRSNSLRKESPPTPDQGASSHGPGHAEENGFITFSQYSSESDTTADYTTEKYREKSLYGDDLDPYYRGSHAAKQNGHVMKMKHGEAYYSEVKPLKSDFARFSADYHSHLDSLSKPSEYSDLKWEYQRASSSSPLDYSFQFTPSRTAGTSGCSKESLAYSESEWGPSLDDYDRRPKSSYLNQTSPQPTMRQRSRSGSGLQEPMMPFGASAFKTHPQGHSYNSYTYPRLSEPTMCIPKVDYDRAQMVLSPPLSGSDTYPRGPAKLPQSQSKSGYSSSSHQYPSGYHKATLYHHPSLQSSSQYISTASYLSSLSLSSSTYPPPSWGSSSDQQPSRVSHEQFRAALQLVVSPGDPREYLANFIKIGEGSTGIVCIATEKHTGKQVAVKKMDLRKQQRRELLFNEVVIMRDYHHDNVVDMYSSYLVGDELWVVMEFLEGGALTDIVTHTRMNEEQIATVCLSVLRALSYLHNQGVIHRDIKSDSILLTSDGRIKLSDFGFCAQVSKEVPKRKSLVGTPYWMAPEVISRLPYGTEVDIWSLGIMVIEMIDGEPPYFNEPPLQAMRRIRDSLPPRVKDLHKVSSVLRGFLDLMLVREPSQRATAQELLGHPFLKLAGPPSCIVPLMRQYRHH
Source text: as §1

CAMK1 = CAMK1 (Homo sapiens (Human), UniProt Q14012)
Source text: as §1

Aurora B = Aurora B (Homo sapiens (Human), UniProt Q96GD4)
Source text: as §1

MSK1 = MSK1 (Homo sapiens (Human), UniProt O75582)
Source text: as §1

JNK3 = JNK3 (Homo sapiens (Human), UniProt P53779)
Source text: as §1

ERK1 = ERK1 (Homo sapiens (Human), UniProt P27361)
Source text: as §1

CHK2 = CHK2 (Homo sapiens (Human), UniProt O96017)
CHK2, sequence (O96017 whole entry, species assumed): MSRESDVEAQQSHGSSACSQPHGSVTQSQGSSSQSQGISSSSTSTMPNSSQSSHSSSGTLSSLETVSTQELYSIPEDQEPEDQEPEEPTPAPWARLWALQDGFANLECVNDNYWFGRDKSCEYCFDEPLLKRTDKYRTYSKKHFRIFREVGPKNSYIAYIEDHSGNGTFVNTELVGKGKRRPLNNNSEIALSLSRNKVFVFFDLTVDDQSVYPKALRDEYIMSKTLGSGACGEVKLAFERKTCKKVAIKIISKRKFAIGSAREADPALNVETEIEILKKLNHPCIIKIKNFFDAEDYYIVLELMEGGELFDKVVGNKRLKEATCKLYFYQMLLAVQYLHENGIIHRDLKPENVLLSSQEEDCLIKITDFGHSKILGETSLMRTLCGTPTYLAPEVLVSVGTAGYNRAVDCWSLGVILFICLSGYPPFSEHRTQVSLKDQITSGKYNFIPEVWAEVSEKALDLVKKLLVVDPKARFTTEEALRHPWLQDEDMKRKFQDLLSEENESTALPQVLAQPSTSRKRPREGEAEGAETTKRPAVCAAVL
Source text: as §1

PKBb = PKBb (Homo sapiens (Human), UniProt P31751)
Source text: as §1

NEK2a = NEK2a (Homo sapiens (Human), UniProt P51955)
Source text: as §1

CAMKKa = CAMKKa (Homo sapiens (Human), UniProt Q8N5S9)
Source text: as §1

PLK1 (Okadaic acid) = PLK1 (Okadaic acid) (Homo sapiens (Human), UniProt P53350)
PLK1 (Okadaic acid), sequence (P53350 whole entry, species assumed): as the sequence (P53350 whole entry, species assumed) above
Source text: as §1

CDK2/cyclin A = CDK2/cyclin A (Homo sapiens (Human), UniProt P24941)
Source text: as §1

PAK6 = PAK6 (Homo sapiens (Human), UniProt Q9NQU5)
PAK6, sequence (Q9NQU5 whole entry, species assumed): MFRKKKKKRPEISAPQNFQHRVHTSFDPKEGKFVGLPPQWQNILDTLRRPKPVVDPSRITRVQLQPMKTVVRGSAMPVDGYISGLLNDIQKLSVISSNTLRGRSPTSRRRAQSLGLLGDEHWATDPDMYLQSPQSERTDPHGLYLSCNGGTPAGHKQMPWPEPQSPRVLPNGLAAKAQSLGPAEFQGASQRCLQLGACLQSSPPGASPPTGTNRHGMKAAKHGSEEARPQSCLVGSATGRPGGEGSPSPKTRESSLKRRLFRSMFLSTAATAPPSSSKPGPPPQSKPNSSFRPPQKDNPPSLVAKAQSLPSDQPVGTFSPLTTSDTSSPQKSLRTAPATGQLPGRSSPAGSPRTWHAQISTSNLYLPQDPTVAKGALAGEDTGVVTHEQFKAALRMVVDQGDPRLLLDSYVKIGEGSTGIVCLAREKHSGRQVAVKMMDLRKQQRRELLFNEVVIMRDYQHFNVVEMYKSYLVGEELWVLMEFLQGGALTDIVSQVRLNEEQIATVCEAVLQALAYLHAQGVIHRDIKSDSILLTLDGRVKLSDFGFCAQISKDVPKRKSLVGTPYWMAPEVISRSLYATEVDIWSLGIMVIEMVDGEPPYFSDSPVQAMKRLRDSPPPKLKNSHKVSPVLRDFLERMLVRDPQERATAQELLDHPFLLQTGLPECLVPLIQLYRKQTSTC
Source text: as §1

GSK3b = GSK3b (Homo sapiens (Human), UniProt P49841)
Source text: as §1

PRAK = PRAK (Homo sapiens (Human), UniProt Q8IW41)
Source text: as §1

MAPKAP-K2 = MAPKAP-K2 (Homo sapiens (Human), UniProt P49137)
Source text: as §1

MARK3 = MARK3 (Homo sapiens (Human), UniProt P27448)
Source text: as §1

MST2 = MST2 (Homo sapiens (Human), UniProt Q13188)
Source text: as §1

CSK = CSK (Homo sapiens (Human), UniProt P41240)
Source text: as §1

ERK8, sequence (Q8TD08 whole entry, species assumed): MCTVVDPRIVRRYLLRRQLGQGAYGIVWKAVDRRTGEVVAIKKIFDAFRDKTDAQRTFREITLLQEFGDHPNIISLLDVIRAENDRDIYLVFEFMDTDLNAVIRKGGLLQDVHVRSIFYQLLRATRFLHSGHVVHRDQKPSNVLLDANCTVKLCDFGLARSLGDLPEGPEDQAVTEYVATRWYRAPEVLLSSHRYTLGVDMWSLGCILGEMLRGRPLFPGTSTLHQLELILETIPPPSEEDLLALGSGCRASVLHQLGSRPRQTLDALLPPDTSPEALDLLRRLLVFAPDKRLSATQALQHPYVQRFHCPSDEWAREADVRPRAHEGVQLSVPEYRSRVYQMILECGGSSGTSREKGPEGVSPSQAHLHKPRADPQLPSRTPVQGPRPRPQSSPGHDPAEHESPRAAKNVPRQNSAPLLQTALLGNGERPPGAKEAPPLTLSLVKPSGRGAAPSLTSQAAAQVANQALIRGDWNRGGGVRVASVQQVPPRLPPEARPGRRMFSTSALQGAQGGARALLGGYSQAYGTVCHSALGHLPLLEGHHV

| Compound | remaining activity at 10 µM (ERK8) | remaining activity at 10 µM (PKA) | remaining activity at 10 µM (MNK1) | remaining activity at 10 µM (EF2K) | remaining activity at 10 µM (NEK6) | remaining activity at 10 µM (S6K1) | remaining activity at 10 µM (PKBa) | remaining activity at 10 µM (MELK) | remaining activity at 10 µM (p38a MAPK) | remaining activity at 10 µM (NEK7) | remaining activity at 10 µM (SRPK1) | % residual activity SmMLCK (SmMLCK) | remaining activity at 10 µM (PLK1) | remaining activity at 10 µM (SGK1) | remaining activity at 10 µM (p38s MAPK) | remaining activity at 10 µM (p38g MAPK) | % residual activity AMPK (AMPK) | remaining activity at 10 µM (p38b MAPK) | remaining activity at 10 µM (IKKb) | remaining activity at 10 µM (PAK5) | also measured |
| --- | --- | --- | --- | --- | --- | --- | --- | --- | --- | --- | --- | --- | --- | --- | --- | --- | --- | --- | --- | --- | --- |
| NC(=O)c1c[nH]c2c1ccc1c3ccccc3[nH]c12 [Example 5, 1,10-dihydropyrrolo[2,3-a]carbazole-3-carboxamide] | 46% | 80% | 19% | 92% | 83% | 72% | 97% | 80% | 96% | 89% | 93% | 69% | 100% | 71% | 76% | 96% | 85% | 92% | 80% | 70% | remaining activity at 10 µM (CAMK1): 80%; remaining activity at 10 µM (Aurora B): 65%; remaining activity at 10 µM (MSK1): 91%; remaining activity at 10 µM (JNK3): 104%; remaining activity at 10 µM (ERK1): 71%; remaining activity at 10 µM (CHK2): 44%; remaining activity at 10 µM (PKBb): 103%; remaining activity at 10 µM (NEK2a): 106%; remaining activity at 10 µM (CAMKKa): 75%; remaining activity at 10 µM (PLK1 (Okadaic acid)): 79%; remaining activity at 10 µM (CDK2/cyclin A): 53%; remaining activity at 10 µM (PAK6): 83%; remaining activity at 10 µM (GSK3b): 91%; remaining activity at 10 µM (PRAK): 85%; remaining activity at 10 µM (MAPKAP-K2): 92%; remaining activity at 10 µM (MARK3): 73%; remaining activity at 10 µM (MST2): 76%; remaining activity at 10 µM (CSK): 65% |
| O=Cc1c[nH]c2c1ccc1c3ccccc3[nH]c12 [Example 3, 1,10-dihydropyrrolo[2,3-a]carbazole-3-carbaldehyde] | 20% | 60% | 27% | 90% | 78% | 38% | 96% | 61% | 102% | 89% | 84% | 60% | 91% | 64% | 92% | 74% | 59% | 80% | 71% | 87% | remaining activity at 10 µM (CAMK1): 71%; remaining activity at 10 µM (Aurora B): 68%; remaining activity at 10 µM (MSK1): 71%; remaining activity at 10 µM (JNK3): 113%; remaining activity at 10 µM (ERK1): 87%; remaining activity at 10 µM (CHK2): 38%; remaining activity at 10 µM (PKBb): 98%; remaining activity at 10 µM (NEK2a): 88%; remaining activity at 10 µM (CAMKKa): 42%; remaining activity at 10 µM (PLK1 (Okadaic acid)): 83%; remaining activity at 10 µM (CDK2/cyclin A): 74%; remaining activity at 10 µM (PAK6): 94%; remaining activity at 10 µM (GSK3b): 88%; remaining activity at 10 µM (PRAK): 72%; remaining activity at 10 µM (MAPKAP-K2): 84%; remaining activity at 10 µM (MARK3): 88%; remaining activity at 10 µM (MST2): 63%; remaining activity at 10 µM (CSK): 74% |
| c1ccc2c(c1)[nH]c1c2ccc2cc[nH]c21 [Example 2, 1,10-dihydropyrrolo[2,3-a]carbazole] | 55% | 95% | 69% | 101% | 90% | 89% | 120% | 93% | 108% | 96% | 90% | 86% | 111% | 82% | 78% | 111% | 80% | 100% | 106% | 82% | remaining activity at 10 µM (CAMK1): 29%; remaining activity at 10 µM (Aurora B): 67%; remaining activity at 10 µM (MSK1): 90%; remaining activity at 10 µM (JNK3): 108%; remaining activity at 10 µM (ERK1): 108%; remaining activity at 10 µM (CHK2): 58%; remaining activity at 10 µM (PKBb): 107%; remaining activity at 10 µM (NEK2a): 104%; remaining activity at 10 µM (CAMKKa): 76%; remaining activity at 10 µM (PLK1 (Okadaic acid)): 103%; remaining activity at 10 µM (CDK2/cyclin A): 97%; remaining activity at 10 µM (PAK6): 92%; remaining activity at 10 µM (GSK3b): 111%; remaining activity at 10 µM (PRAK): 97%; remaining activity at 10 µM (MAPKAP-K2): 118%; remaining activity at 10 µM (MARK3): 116%; remaining activity at 10 µM (MST2): 82%; remaining activity at 10 µM (CSK): 98% |
